Test results taken from PubChem BioAssay AID1963446 (Molecular Pharmacology Branch, DTP, NCI, 2024).

System: 993429-296-R-J1-PDC complex spheroid growth, percent test/control
Experiment: Anticancer human tumor 993429-296-R-J1-PDC patient-derived uterine sarcoma cell line growth inhibition [Asc]
Conditions: for IC50: curve of first compound; for viability, T/C: stronger effect = lower value
Procedure: Multicellular complex tumor spheroid response to apoptosis pathway targeting inhibitors Alrizomadlin, Pelcitoclax, and Dasminapant in combination with a variety of drugs and investigational agents in selected tumor cell lines
The MDM2 inhibitor alrizomadlin, the Bcl-2/Bcl-xL inhibitor pelcitoclax, and the IAPs inhibitor dasminapant were evaluated both individually and in combination with standard of care and investigational anticancer small molecules within a complex spheroid model of solid tumors. . Complex spheroids include a stromal component modeled by human endothelial cells (HUVEC) and fibroblasts modeled by human mesenchymal stem cells (MSCs). The concentration ranges selected for each drug and investigational agent were based upon clinically achievable concentrations if the clinical Cmax of the agent was known.
Compounds. The drugs and investigational agents: alrizomadlin (APG-115; NSC831270), pelcitoclax (APG-1252; NSC835773), dasminapant (APG-1387;NSC834197), TAK-243 (NSC785004), copanlisib (NSC809693), olaparib (NSC753686), talazoparib (NSC767125), cobimetinib (NSC 768068), eltanexor (KPT-8602, NSC 794443), abemaciclib (NSC 768073), sotorasib (NSC818433), adagrasib (NSC 831453), MRTX-1133 (NSC 836407), Iadademestat (ORY1001, NSC 806812), and RMC-4630 (NSC839698), were obtained from the NCI Developmental Therapeutics Program Chemical Repository. The FDA-approved anticancer drug set is available from the Developmental Therapeutics Program at https://dtp.cancer.gov/organization/dscb/obtaining/available plates.htm. […] The stock solutions were prepared in dimethyl sulfoxide (DMSO, Sigma-Aldrich, St. Louis, MO, cat. D2650) at 800-fold the tested concentration and stored at -70 degrees C prior to their use. All drugs and investigational agents were tested over a range starting from a high concentration at or near the clinical Cmax and decreasing in half-log increments. If the clinical Cmax for an agent had not been determined, the highest concentration tested was 10 microM.
The patient-derived cancer (PDC) cell lines include five colon adenocarcinomas: 186277-243-T-J2-PDC, 616215-338-R-J1-PDC, 439559-082-T-J2-PDC, 463943-066-T-J2-PDC, and 519858-162-T-J1-PDC; three pancreatic carcinomas: 323965-272-R-J2-PDC, 521955-158-R6-J3-PDC, and 521955-158-R2-J5-PDC; two uterine sarcomas: 327498-152-R-J2-PDC and 993429-296-R-J1-PDC; two rhabdomyosarcomas: 755483-174-R-J1-PDC and 772245-204-R-J1-PDC; two soft tissue sarcomas: 126254-015-R-J1-PDC and 494315-158-R-J1-PDC; two malignant fibrous histiocytomas: 317291-083-R-J1-PDC and 596521-263-R-J1-PDC; two breast carcinomas: 171881-019-R-J1-PDC and 885512-296-R-J2-PDC; and one ovarian carcinoma: 6556581-035-R-J-PDC were obtained from the NCI PDMR, (https://pdmr.cancer.gov). The established cell lines HSSY-2 synovial sarcoma (RRID:CVCL 8719), SYO-1 synovial sarcoma (RRID:CVCL_7146), MPNST malignant peripheral neural sheath tumor were obtained from the Sloan Kettering Institute. The following established cell lines were purchased from the American Type Culture Collection (ATCC, Manassas, VA), Sor the received from the NCI repository:, PANC-1 pancreatic carcinoma (CRL-1469, RRID:CVCL_0480), OVCAR-5 ovarian carcinoma (RRID:CVCL_1628), OVCAR-8 ovarian carcinoma (RRID:CVCL_1629), , MCF-7 breast carcinoma (CRL-12584, RRID:CVCL_0031), MDA-MB-231 breast carcinoma (CRL-12532, RRID:CVCL_0062), NCI-H1876 small cell lung carcinoma (CRL-5902, RRID:CVCL_1503), NCI-H510A small cell lung carcinoma (HTB-184, RRID:CVCL_1565), NCI-H1417 (CRL-5869, RRID:CVCL_1469), and NCI-H196 small cell lung carcinoma (CRL-5823, RRID:CVCL_1509). Dr. Peter Houghton (Greehey Children's Cancer Research Institute, University of Texas Health Science Center, San Antonio, TX) provided Rh-18 rhabdomyosarcoma (RRID:CVCL_1659). Pooled donor human umbilical vein endothelial cells (HUVEC, Lonza, cat. CC-2519) and human mesenchymal stem cells (hMSC, Lonza, cat. PT-2501) were purchased from Lonza (Walkersville, MD).
Cell Culture. […]

[1] = second compound 0.1 µM, first compound 0.0316 µM
[2] = second compound 0.1 µM, first compound 0.1 µM
[3] = second compound 0.1 µM, first compound 0.316 µM
[4] = second compound 0.1 µM, first compound 1 µM
[5] = second compound 0.1 µM, first compound 3.16 µM
[6] = second compound 0.1 µM, first compound 10 µM
[7] = second compound 0.316 µM, first compound 0.0316 µM
[8] = second compound 0.316 µM, first compound 0.1 µM
[9] = second compound 0.316 µM, first compound 0.316 µM
[10] = second compound 0.316 µM, first compound 1 µM
[11] = second compound 0.316 µM, first compound 3.16 µM
[12] = second compound 0.316 µM, first compound 10 µM
[13] = second compound 1 µM, first compound 0.0316 µM
[14] = second compound 1 µM, first compound 0.1 µM
[15] = second compound 1 µM, first compound 0.316 µM
[16] = second compound 1 µM, first compound 1 µM
[17] = second compound 1 µM, first compound 3.16 µM
[18] = second compound 1 µM, first compound 10 µM
[19] = second compound 0.01 µM, first compound 0.0316 µM
[20] = second compound 0.01 µM, first compound 0.1 µM
[21] = second compound 0.01 µM, first compound 0.316 µM
[22] = second compound 0.01 µM, first compound 1 µM
[23] = second compound 0.01 µM, first compound 3.16 µM
[24] = second compound 0.01 µM, first compound 10 µM
[25] = second compound 0.0316 µM, first compound 0.0316 µM
[26] = second compound 0.0316 µM, first compound 0.1 µM
[27] = second compound 0.0316 µM, first compound 0.316 µM
[28] = second compound 0.0316 µM, first compound 1 µM
[29] = second compound 0.0316 µM, first compound 3.16 µM
[30] = second compound 0.0316 µM, first compound 10 µM
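Also: spheroids exposed to compounds for seven days.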

Row | IC50 (second compound 0.1 µM) [nM] | IC50 (second compound 0.316 µM) [nM] | IC50 (second compound 1 µM) [nM] | SMILES | viability, T/C [1] [%] | viability, T/C [2] [%] | viability, T/C [3] [%] | viability, T/C [4] [%] | viability, T/C [5] [%] | viability, T/C [6] [%] | viability, T/C [7] [%] | viability, T/C [8] [%] | viability, T/C [9] [%] | viability, T/C [10] [%] | viability, T/C [11] [%] | viability, T/C [12] [%] | viability, T/C [13] [%] | viability, T/C [14] [%] | viability, T/C [15] [%] | viability, T/C [16] [%] | viability, T/C [17] [%] | other results
1 | 2930 | 1410 | 1450 | C#Cc1c(F)ccc2cc(O)cc(-c3ncc4c(N5CC6CCC(C5)N6)nc(OCC56CCCN5CC(F)C6)nc4c3F)c12 (stereo not given) + Cc1c(S(C)(=O)=O)c(-c2cc(F)cc(N3CCN(c4ccc(NS(=O)(=O)c5ccc(NC(CCN6CCC(C(=O)OCCCP(=O)(O)O)CC6)CSc6ccccc6)c(S(=O)(=O)C(F)(F)F)c5)cc4)CC3)c2)c(-c2ccc(Cl)cc2)n1C(C)C | 70.7 | 69.9 | 64.8 | 67.3 | 48.8 | 2.44 | 55.4 | 73.8 | 66.5 | 53.1 | 36 | 1.38 | 60.1 | 55.9 | 50.7 | 67.3 | 32 | IC50 (second compound 3.16 µM): < 31.6 nM; IC50 (second compound 10 µM): 2750 nM; viability, T/C [18]: 0.37%; viability, T/C (second compound 3.16 µM, first compound 0.0316 µM): 53.6%; viability, T/C (second compound 3.16 µM, first compound 0.1 µM): 45.6%; viability, T/C (second compound 3.16 µM, first compound 0.316 µM): 45.6%; viability, T/C (second compound 3.16 µM, first compound 1 µM): 36%; viability, T/C (second compound 3.16 µM, first compound 3.16 µM): 33%; viability, T/C (second compound 3.16 µM, first compound 10 µM): 0.32%; viability, T/C (second compound 10 µM, first compound 0.0316 µM): 94.9%; viability, T/C (second compound 10 µM, first compound 0.1 µM): 98.8%; viability, T/C (second compound 10 µM, first compound 0.316 µM): 88.1%; viability, T/C (second compound 10 µM, first compound 1 µM): 74.5%; viability, T/C (second compound 10 µM, first compound 3.16 µM): 46.9%; viability, T/C (second compound 10 µM, first compound 10 µM): 2.69%
2 | 1110 | 406 | 903 | O=C(c1cc(Cc2n[nH]c(=O)c3ccccc23)ccc1F)N1CCN(C(=O)C2CC2)CC1 + CNC(C)C(=O)NC1CN(S(=O)(=O)c2cccc(S(=O)(=O)N3CCC4CCC(C(=O)NC(c5ccccc5)c5ccccc5)N4C(=O)C(NC(=O)C(C)NC)C3)c2)CCC2CCC(C(=O)NC(c3ccccc3)c3ccccc3)N2C1=O | 53.4 | 63.5 | 54.8 | 51.4 | 36.3 | 11.6 | 60.2 | 55.9 | 43.6 | 45.5 | 39 | 14.1 | 53.2 | 48 | 59.5 | 48.7 | 28.1 | IC50 (second compound 0.01 µM): 2080 nM; IC50 (second compound 0.0316 µM): 1740 nM; viability, T/C [19]: 63.2%; viability, T/C [20]: 73.3%; viability, T/C [21]: 64.6%; viability, T/C [22]: 64.5%; viability, T/C [23]: 41.8%; viability, T/C [24]: 17.7%; viability, T/C [25]: 61.5%; viability, T/C [26]: 56.2%; viability, T/C [27]: 59.5%; viability, T/C [28]: 59.6%; viability, T/C [29]: 40%; viability, T/C [30]: 12.4%; viability, T/C [18]: 10.7%
3 | > 10000 | > 10000 | > 10000 | C=CC(=O)N1CCN(c2nc(=O)n(-c3c(C)ccnc3C(C)C)c3nc(-c4c(O)cccc4F)c(F)cc23)C(C)C1 (stereo not given) + CNC(C)C(=O)NC1CN(S(=O)(=O)c2cccc(S(=O)(=O)N3CCC4CCC(C(=O)NC(c5ccccc5)c5ccccc5)N4C(=O)C(NC(=O)C(C)NC)C3)c2)CCC2CCC(C(=O)NC(c3ccccc3)c3ccccc3)N2C1=O | 56.7 | 49.8 | 62.8 | 65 | 59.9 | 64.5 | 52.3 | 48.6 | 60.6 | 55.9 | 62.1 | 59.5 | 51.7 | 57.3 | 61.5 | 60.6 | 59.2 | IC50 (second compound 0.01 µM): > 10000 nM; IC50 (second compound 0.0316 µM): > 10000 nM; viability, T/C [19]: 58.3%; viability, T/C [20]: 67.2%; viability, T/C [21]: 71.1%; viability, T/C [22]: 69.7%; viability, T/C [23]: 75.1%; viability, T/C [24]: 68.1%; viability, T/C [25]: 58.9%; viability, T/C [26]: 65.8%; viability, T/C [27]: 66.2%; viability, T/C [28]: 49.3%; viability, T/C [29]: 62.8%; viability, T/C [30]: 61.2%; viability, T/C [18]: 59%
